According to patent publication US12070447B2, “Parenteral liquid preparation comprising carbamate compound” (SK BIOPHARMACEUTICALS CO., LTD., priority 2016, dated 2024):
Converted amounts (≈) assume the structure as drawn. Like-named read-outs stand apart in the source and are kept apart here.

Key:
[1] = Saturation solubility according to pH change; assay type: physicochemical; settings: for solubility at 12 h: thermodynamic from solid
Method: The solubility of carbamic acid (R)-1-(2-chlorophenyl)-2-tetrazol-2-yl)ethyl ester in various aqueous (water) solvent conditions was measured: (1) purified water, (2) pH 1 hydrochloric acid solution, and (3) pH 3 to 8 phosphate buffer solution. Specifically, about 50 mg of carbamic acid (R)-1-(2-chlorophenyl)-2-tetrazol-2-yl)ethyl ester was placed in a suitable glass vial and 15 mL of solvent was added. The mixture was slowly stirred at room temperature for 12 hours on a rotary stirrer to reach equilibrium. Two samples for each aqueous solvent were transferred to a microtube, and centrifuged, and the pH was measured by taking the supernatant. After dilution with diluted solution for analysis, the concentration was analyzed using high performance liquid chromatography under the same conditions as in Experimental Example 1 above.

[2] = Saturation solubility according to the concentration of cyclodextrin derivative; assay type: physicochemical; settings: for solubility at 6 h: aqueous with cosolvent or surfactant or cyclodextrin; for solubility at 6 h / solubility: thermodynamic from solid, water for injection, room temperature; for solubility: water for injection without cyclodextrin, water, 0 % W/V cyclodextrin derivative (Comparative Example, no cyclodextrin)
Method: 2-Hydroxypropyl-β-cyclodextrin (trade name: Cavitron) and sulfobutyl ether-β-cyclodextrin sodium salt (trade name: Captisol) as cyclodextrin compounds were each dissolved in water for injection at various concentrations as shown in Table 1. To this was added an excess amount of carbamic acid (R)-1-(2-chlorophenyl)-2-tetrazol-2-yl)ethyl ester, and the mixture was stirred at room temperature for 6 hours. The mixture was then filtered through a membrane filter to remove insolubles, and the amount of carbamic acid (R)-1-(2-chlorophenyl)-2-tetrazol-2-yl)ethyl ester in the filtrate was measured by high performance liquid chromatography, by which the saturation solubility was calculated. The column used in this experiment was a 75×4.6 mm, 3.5 μm C18 column, and the mobile phase was a mixed solution of 20% by volume of acetonitrile and 80% by volume of 10 mM phosphate buffer (pH 3.0). The flow rate was 2.0 mL/min, and detection was performed at 215 nm.
As a comparative example, the saturation solubility of carbamic acid (R)-1-(2-chlorophenyl)-2-tetrazol-2-yl)ethyl ester to which no cyclodextrin compound had been added was measured at room temperature.
The calculated saturation solubility values are shown in Table 1, and the same results are shown graphically in FIG. 1.

NC(=O)O[C@@H](Cn1ncnn1)c1ccccc1Cl [carbamic acid (R)-1-(2-chlorophenyl)-2-tetrazol-2-yl)ethyl ester]
solubility at 12 h ([1]; pH 1 hydrochloric acid solution, pH 1, simulated gastric fluid, pH 1 hydrochloric acid solution, room temperature, read-out: Concentration (saturation solubility), Mean): 1.95 mg/mL (≈ 7.28 mM)
solubility at 12 h ([1]; pH 1 hydrochloric acid solution, pH 1, simulated gastric fluid, pH 1 hydrochloric acid solution, room temperature, read-out: Concentration (saturation solubility), Test solution 1): 1.94 mg/mL (≈ 7.25 mM)
solubility at 12 h ([1]; pH 1 hydrochloric acid solution, pH 1, simulated gastric fluid, pH 1 hydrochloric acid solution, room temperature, read-out: Concentration (saturation solubility), Test solution 2): 1.97 mg/mL (≈ 7.36 mM)
Effect of change in pH on solubility ([1]; pH 1 to 8 aqueous solvents, in words): not greatly affected by the change in pH
solubility at 12 h ([1]; pH 3.0 phosphate buffer solution, pH 3, aqueous buffer, pH 3.0 phosphate buffer solution, final pH 3.1, room temperature, read-out: Concentration (saturation solubility), Mean): 1.87 mg/mL (≈ 6.99 mM)
solubility at 12 h ([1]; pH 3.0 phosphate buffer solution, pH 3, aqueous buffer, pH 3.0 phosphate buffer solution, final pH 3.1, room temperature, read-out: Concentration (saturation solubility), Test solution 1): 1.87 mg/mL (≈ 6.99 mM)
solubility at 12 h ([1]; pH 3.0 phosphate buffer solution, pH 3, aqueous buffer, pH 3.0 phosphate buffer solution, final pH 3.1, room temperature, read-out: Concentration (saturation solubility), Test solution 2): 1.86 mg/mL (≈ 6.95 mM)
solubility at 12 h ([1]; pH 5.0 phosphate buffer solution, pH 5, aqueous buffer, pH 5.0 phosphate buffer solution, final pH 5.0, room temperature, read-out: Concentration (saturation solubility), Mean): 1.91 mg/mL (≈ 7.14 mM)
solubility at 12 h ([1]; pH 5.0 phosphate buffer solution, pH 5, aqueous buffer, pH 5.0 phosphate buffer solution, final pH 5.0, room temperature, read-out: Concentration (saturation solubility), Test solution 1): 1.91 mg/mL (≈ 7.14 mM)
solubility at 12 h ([1]; pH 5.0 phosphate buffer solution, pH 5, aqueous buffer, pH 5.0 phosphate buffer solution, final pH 5.0, room temperature, read-out: Concentration (saturation solubility), Test solution 2): 1.91 mg/mL (≈ 7.14 mM)
solubility at 12 h ([1]; pH 6.5 phosphate buffer solution, pH 6.5, aqueous buffer, pH 6.5 phosphate buffer solution, final pH 6.6, room temperature, read-out: Concentration (saturation solubility), Mean): 1.86 mg/mL (≈ 6.95 mM)
solubility at 12 h ([1]; pH 6.5 phosphate buffer solution, pH 6.5, aqueous buffer, pH 6.5 phosphate buffer solution, final pH 6.6, room temperature, read-out: Concentration (saturation solubility), Test solution 1): 1.86 mg/mL (≈ 6.95 mM)
solubility at 12 h ([1]; pH 6.5 phosphate buffer solution, pH 6.5, aqueous buffer, pH 6.5 phosphate buffer solution, final pH 6.6, room temperature, read-out: Concentration (saturation solubility), Test solution 2): 1.86 mg/mL (≈ 6.95 mM)
solubility at 12 h ([1]; pH 8.0 phosphate buffer solution, pH 8, aqueous buffer, pH 8.0 phosphate buffer solution, final pH 8.0, room temperature, read-out: Concentration (saturation solubility), Mean): 1.81 mg/mL (≈ 6.76 mM)
solubility at 12 h ([1]; pH 8.0 phosphate buffer solution, pH 8, aqueous buffer, pH 8.0 phosphate buffer solution, final pH 8.0, room temperature, read-out: Concentration (saturation solubility), Test solution 1): 1.8 mg/mL (≈ 6.72 mM)
solubility at 12 h ([1]; pH 8.0 phosphate buffer solution, pH 8, aqueous buffer, pH 8.0 phosphate buffer solution, final pH 8.0, room temperature, read-out: Concentration (saturation solubility), Test solution 2): 1.82 mg/mL (≈ 6.8 mM)
solubility at 12 h ([1]; purified water, pH 6.2, water, Purified water, final pH 6.2, room temperature, read-out: Concentration (saturation solubility), Mean): 1.8 mg/mL (≈ 6.72 mM)
solubility at 12 h ([1]; purified water, pH 6.2, water, Purified water, final pH 6.2, room temperature, read-out: Concentration (saturation solubility), Test solution 1): 1.8 mg/mL (≈ 6.72 mM)
solubility at 12 h ([1]; purified water, pH 6.2, water, Purified water, final pH 6.2, room temperature, read-out: Concentration (saturation solubility), Test solution 2): 1.81 mg/mL (≈ 6.76 mM)
Solubility when cyclodextrin compound was added, compared with comparative example without cyclodextrin ([2]; Cavitron or Captisol added, in words): significantly improved
solubility at 6 h ([2]; Captisol 10 % W/V): 12.8 mg/mL (≈ 47.8 mM)
solubility at 6 h ([2]; Captisol 15 % W/V): 18 mg/mL (≈ 67.2 mM)
solubility at 6 h ([2]; Captisol 20 % W/V): 24.5 mg/mL (≈ 91.5 mM)
solubility at 6 h ([2]; Captisol 30 % W/V): 32.5 mg/mL (≈ 121 mM)
solubility at 6 h ([2]; Captisol 40 % W/V): 45.1 mg/mL (≈ 168 mM)
solubility at 6 h ([2]; Captisol (sulfobutyl ether-β-cyclodextrin sodium salt) 5 % W/V): 6.7 mg/mL
solubility at 6 h ([2]; Cavitron 10 % W/V): 13.2 mg/mL (≈ 49.3 mM)
solubility at 6 h ([2]; Cavitron 15 % W/V): 19.8 mg/mL (≈ 74 mM)
solubility at 6 h ([2]; Cavitron 20 % W/V): 27.9 mg/mL (≈ 104 mM)
solubility at 6 h ([2]; Cavitron 30 % W/V): 38.6 mg/mL (≈ 144 mM)
solubility at 6 h ([2]; Cavitron 40 % W/V): 49.5 mg/mL (≈ 185 mM)
solubility at 6 h ([2]; Cavitron (2-hydroxypropyl-β-cyclodextrin) 5 % W/V): 5.5 mg/mL (≈ 20.5 mM)
solubility ([2]; Captisol column): 1.8 mg/mL (≈ 6.72 mM)
solubility ([2]; Cavitron column): 1.8 mg/mL (≈ 6.72 mM)
